Results: patent US20240269238A1, “Therapeutic Regimens and Methods for Reducing Body Weight in a Subject with Fatty Liver Disease using a GLP-1R and GCGR Agonist” (Spitfire Pharma LLC, priority 2022, published 2024)

Columns and labels:
[1] = Phase 1 12-week NAFLD study (Example 1): body weight loss; type: in vivo, human; conditions: for weight loss: week 12; for placebo-adjusted weight loss: 12 weeks
Description: Provided herein is disclosure of a Phase 1, multicenter, randomized, double-blind, placebo-controlled study to assess the effects of Pemvidutide (also termed herein as ALT-801), the safety of Pemvidutide and effects on hepatic fat fraction, anthropometric parameters, lipid metabolism, inflammatory markers and fibrosis markers in diabetic and non-diabetic (type 2 diabetes) overweight and obese (BMI 28.0 kg/m^2) subjects with NAFLD. This study was designed to assess changes in hepatic fat fraction by MRI-PDFF (magnetic resonance imaging-proton density fat fraction) in diabetic and non-diabetic overweight and obese subjects with NAFLD after 12 weeks of ALT-801 treatment. The trial was conducted without adjunctive diet and exercise interventions. The study assessed changes in body weight, lipid metabolism, metabolic markers, and inflammatory markers and safety and tolerability of ALT-801 after 12 weeks of treatment. Subjects were stratified for the presence or absence of diabetes at baseline. Fibroscan and cT1 assessments evaluated changes in liver inflammatory and fibrotic activity at the end of 12 weeks of treatment.
Overweight and obese volunteers with BMI ≥28 kg/m^2 were studied because this is the typical population of individuals with NAFLD, and these subjects are able to better tolerate the predicted Pharmacodynamics (PD) effect of weight loss and could even benefit from treatment. A hepatic fat fraction of 10% has been typical for the evaluation of hepatic fat fraction in subjects with NAFLD. In other words, individuals with a liver fat fraction of 10% or greater are typically diagnosed with NAFLD. Diabetic subjects that require insulin, sulfonylureas or DDP-4 inhibitors for control of diabetes were excluded in this study. Exclusions were instituted that might otherwise affect an accurate assessment of the effects of ALT-801 on safety or PD. The BMI upper limit is set to 45 kg/m^2 as subjects over this BMI are no likely to fit into the MRI scanner.
The study, described in this example, was carried out in 94 subjects overweight and obese (body mass index [BMI] ≥28.0 kg/m^2) Type 2 diabetic and non-diabetic subjects with nonalcoholic fatty liver disease (NAFLD) over about 4.5 months, including up to a 35-day screening period, and 85-day treatment period and a 25-day follow-up period, with treatment with ALT-801 (a composition comprising SEQ ID NO.: 1, “study medication”) or placebo administered by subcutaneous (SC) injection once weekly for up to twelve (12) doses.
The safety objective of this study was to assess the safety and tolerability of ALT-801 in 18-65 years old subjects with NAFLD (NAFLD without significant fibrosis, defined as FibroScan® controlled attenuation parameter (CAP) ≥280 dB/m and liver stiffness measurement (LSM)<10 kPa (i.e., indicating the absence of significant fibrosis), magnetic resonance imaging derived proton density fat fraction (MRI-PDFF) ≥10%), hemoglobin Alc (HbAlc) of less than 9.5%, and alanine aminotransferase (ALT) or aspartate aminotransferase (AST) values of ≤[…]. The pharmacodynamic (PD) objectives of this study were to evaluate the effects of ALT-801 on hepatic fat fraction, anthropometric parameters, lipid metabolism, metabolic markers, inflammatory markers, fibrosis markers, and lipotoxicity markers. The pharmacokinetic (PK) objectives of this study were to evaluate the effects of ALT-801 and metformin exposure (drug interactions) on the subjects (e.g., ALT-801 and metformin concentrations in blood over time).
After providing informed consent, subjects underwent a screening period of up to 35 days. Subjects were instructed on how to maintain their normal diets, alcohol consumption and physical activities and not to start any new diets, supplements, or exercise programs at any time while participating in the study. […]

[2] = Phase 1b 24-week NAFLD study (Example 3): serum lipids, blood pressure, heart rate, glycemic control; type: in vivo, human
Description: Provided herein is disclosure of a 12-week extension study of the study provided in Example 1, providing a 24-week a Phase 1b, randomized, double-blind, placebo-controlled study to assess the effects of pemvidutide (also termed herein as ALT-801), the safety of pemvidutide and effects on weight loss, hepatic fat fraction, anthropometric parameters, lipid metabolism, as well as inflammatory, fibrosis and other markers in diabetic and non-diabetic (type 2 diabetes) overweight and obese (BMI≥28.0 kg/m^2) subjects with NAFLD (defined as liver fat content (LFC) by MRI-PDFF ≥10%; absence of significant fibrosis, defined as FibroScan® LSM ≤10 kPa), alanine aminotransferase (ALT) and aspartate aminotransferase (AST) laboratory values of ≤75 IU/L and HbA1c <9.5. Men and women aged 18-65 years were studied. Diabetic subjects were defined as those that have undergone stable dose (≥3 months) metformin or SLGT-2 therapy and no use of insulin, sulfonylureas, DPP-4, GLP-1 treatment; Ninety-four (94) subjects were enrolled in the initial 12-week Phase 1b NAFLD trial and 83 subjects who completed were invited to receive a total of 12 additional weeks of blinded treatment. Of those subjects, 66 consented to rollover, of which 64 were eligible to participate.
The primary endpoint of this study was a reduction in liver fat content (LFC) by MRI-PDFF at Week 24 compared to Week 0 (zero). Key secondary endpoints include percent (%) weight loss at Week 24 compared to Week 0 (zero), and liver inflammation by alanine aminotransferase (ALT) levels and corrected T1 (cT1) imaging at Week 24 as compared to Week 0 (zero). Adverse events (AEs), including serious and severe AEs, AEs leading to discontinuation, GI tolerability, vital signs, and glycemic control including fasting glucose and HbA1c levels were also measured.

CC[C@H](C)[C@H](NC(=O)[C@H](Cc1ccccc1)NC(=O)[C@H](CCC(=O)O)NC(=O)[C@@H]1CCCCNC(=O)CC[C@H](NC(=O)[C@H](CC(=O)O)NC(=O)[C@H](CC(C)C)NC(=O)[C@H](Cc2ccc(O)cc2)NC(=O)[C@H](CCCCN)NC(=O)[C@H](CO)NC(=O)[C@H](Cc2ccc(O)cc2)NC(=O)[C@H](CC(=O)O)NC(=O)[C@H](CO)NC(=O)[C@@H](NC(=O)[C@H](Cc2ccccc2)NC(=O)[C@@H](NC(=O)CNC(=O)[C@H](CCC(N)=O)NC(=O)C(C)(C)NC(=O)[C@@H](N)Cc2c[nH]cn2)[C@@H](C)O)[C@H](C)O)C(=O)N[C@@H](CCCCNC(=O)C2O[C@@H](OCCCCCCCCCCCCCCCCCC(=O)O)C(O)C(O)[C@@H]2O)C(=O)N[C@@H](C)C(=O)N[C@@H](C)C(=O)N1)C(=O)N[C@@H](CCC(N)=O)C(=O)N[C@@H](Cc1c[nH]c2ccccc12)C(=O)N[C@@H](CC(C)C)C(=O)N[C@@H](CC(C)C)C(=O)N[C@@H](CCC(N)=O)C(=O)N[C@H](C(N)=O)[C@@H](C)O (stereo partly drawn) [ALT-801, Pemvidutide]
weight loss ([1]; all subjects, 1.2 mg): 3.4% | weight loss ([1]; all subjects, 1.8 mg): 4.3% | weight loss ([1]; all subjects, 2.4 mg): 3.7% | weight loss ([1]; diabetic subjects, 1.2 mg): 3.3% | weight loss ([1]; diabetic subjects, 1.8 mg): 3.8% | weight loss ([1]; diabetic subjects, 2.4 mg): 4.4% | placebo-adjusted weight loss ([1]; diabetic subjects): 4.5% | weight loss ([1]; non-diabetic subjects, 1.2 mg): 3.4% | weight loss ([1]; non-diabetic subjects, 1.8 mg): 4.9% | weight loss ([1]; non-diabetic subjects, 2.4 mg): 3.5% | placebo-adjusted weight loss ([1]; non-diabetic subjects): 4.7% | systolic blood pressure reduction ([2]; 2.4 mg per week, week 24): significant | blood pressure and heart rate ([2]; all doses, week 24): improvements in blood pressure without clinically meaningful increases in heart rate | serum lipids ([2]; all doses, week 24): improvements in serum lipids | glycemic parameters (fasting glucose and HbA1c) ([2]; diabetic patients, all doses, Week 24): improvements in glycemic parameters
